Data: patent US11104690B2, “Indazole derivatives useful as inhibitors of diacylglyceride O-acyltransferase 2” (Merck Sharp & Dohme Corp., priority 2016, dated 2021)
Where “and” joins values, the source holds several entries; their conditions need not be identical. Equal entries are not always repeated.

Target: Human DGAT2 (Homo sapiens (Human), UniProt Q96PD7)
Assay: DGAT2 Enzymatic Activity Assay (triolein formation, LC/MS/MS)
Assay type: biochemical
Details: hDGAT2 Sf-9 membrane prep; 25 μM diolein, 10 μM oleoyl-CoA; room temperature
Method in brief: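 Membranes from Sf-9 cells infected with untagged hDGAT2 baculovirus, 10 ng/μL, at room temperature in 100 mM Tris.Cl pH 7.0, 20 mM MgCl2, 5% ethanol with 25 μM diolein and 10 μM oleoyl-CoA. Triolein quantified by LC/MS/MS against spiked internal standard; IC50 from 4-parameter sigmoidal fit.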

Human DGAT2, sequence (Q96PD7 whole entry): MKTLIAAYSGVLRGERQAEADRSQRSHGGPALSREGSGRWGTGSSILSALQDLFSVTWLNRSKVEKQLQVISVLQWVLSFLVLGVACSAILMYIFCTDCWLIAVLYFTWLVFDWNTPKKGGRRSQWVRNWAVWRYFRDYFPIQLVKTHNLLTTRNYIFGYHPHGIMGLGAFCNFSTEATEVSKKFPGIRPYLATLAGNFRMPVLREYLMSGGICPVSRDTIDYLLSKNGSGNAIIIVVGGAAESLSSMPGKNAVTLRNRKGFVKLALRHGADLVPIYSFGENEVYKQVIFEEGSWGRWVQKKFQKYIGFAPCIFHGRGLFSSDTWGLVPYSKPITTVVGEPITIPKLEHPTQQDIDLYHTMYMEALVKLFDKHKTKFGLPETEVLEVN

| Compound | IC50 |
| --- | --- |
| O=C(NC1CCS(=O)(=O)C1)c1ccc2c(-c3cccc(C4CC4)c3)nn(-c3ccc(F)cn3)c2c1 (single isomer, unassigned) [Example 126-A, 3-(3-cyclopropylphenyl)-N-(1,1-dioxidotetrahydrothiophen-3-yl)-1-(5-fluoropyridin-2-yl)-1H-indazole-6-carboxamide] | 11 nM |
| COc1cccc(-c2nn(-c3ccc(F)cc3)c3cc(C(=O)NC4CCS(=O)(=O)C4)ccc23)c1 (single isomer, unassigned) [Example 131-A, N-(1,1-dioxidotetrahydrothiophen-3-yl)-1-(4-fluorophenyl)-3-(3-methoxyphenyl)-1H-indazole-6-carboxamide] | 3 nM |
| O=C(NC1CCS(=O)(=O)C1)c1ccc2c(-c3ccccc3Cl)nn(Cc3ccc(Cl)cc3)c2c1 (stereo not shown) [Example 168, 1-(4-chlorobenzyl)-3-(2-chlorophenyl)-N-(1,1-dioxidotetrahydrothiophen-3-yl)-1H-indazole-6-carboxamide] | 455 nM |
| CC1(NC(=O)c2ccc3c(-c4ccc5c(c4)OCO5)nn(-c4ccc(F)cc4)c3c2)CCS(=O)(=O)C1 (single isomer, unassigned) [Example 139-A, 3-(1,3-benzodioxol-5-yl)-1-(4-fluorophenyl)-N-(3-methyl-1,1-dioxidotetrahydrothiophen-3-yl)-1H-indazole-6-carboxamide] | 229 nM and 158 nM |
| CC(C)(C)NC(=O)c1ccc2c(-c3ccccc3Cl)nn(-c3ccc(F)cc3)c2c1 [Example 15, N-tert-butyl-3-(2-chlorophenyl)-1-(4-fluorophenyl)-1H-indazole-6-carboxamide] | 77 nM |
| C[C@@H](CO)NC(=O)c1ccc2c(-c3ccccc3Cl)nn(-c3ccc(F)cc3)c2c1 [Example 68, 3-(2-chlorophenyl)-1-(4-fluorophenyl)-N-[(1S)-2-hydroxy-1-methylethyl]-1H-indazole-6-carboxamide] | 310 nM |
| CC1(NC(=O)c2ccc3c(-c4ccccc4Cl)nn(-c4ccc(F)cc4)c3c2)CCS(=O)(=O)C1 (single isomer, unassigned) [Example 1-B, 3-(2-chlorophenyl)-1-(4-fluorophenyl)-N-(3-methyl-1,1-dioxidotetrahydrothiophen-3-yl)-1H-indazole-6-carboxamide] | 8.3 nM |
| CC1(NC(=O)c2ccc3c(-c4cccc(OCC(F)(F)F)c4)nn(-c4ccc(F)cc4)c3c2)CCS(=O)(=O)C1 (single isomer, unassigned) [Example 147-A, 1-(4-fluorophenyl)-N-(3-methyl-1,1-dioxidotetrahydrothiophen-3-yl)-3-[3-(2,2,2-trifluoroethoxy)phenyl]-1H-indazole-6-carboxamide] | 5.7 nM |
| CC(C)(C)[C@@H](CO)NC(=O)c1ccc2c(-c3ccccc3Cl)nn(-c3ccc(F)cc3)c2c1 [Example 99, 3-(2-chlorophenyl)-1-(4-fluorophenyl)-N-[(1S)-1-(hydroxymethyl)-2,2-dimethylpropyl]-1H-indazole-6-carboxamide] | 6.1 nM |
| O=C(NCCS(=O)(=O)Nc1ccccn1)c1ccc2c(-c3ccccc3Cl)nn(-c3ccc(F)cc3)c2c1 [Example 55, 3-(2-chlorophenyl)-1-(4-fluorophenyl)-N-[2-(pyridin-2-ylsulfamoyl)ethyl]-1H-indazole-6-carboxamide] | 383 nM |
